Measurements reported in ChEMBL document CHEMBL1201861, “Genomics of Drug Sensitity in Cancer screening data, Wellcome Trust Sanger Institute”.
Several values for one entry are separate records, joined by “and”; a condition that tells them apart may be missing. Identical values can stand only once.

Tests used:
Assay in all cases: cells
MPP-89 = type: functional, cell-based, Homo sapiens;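 also: growth inhibition of human MPP-89 cells, read out with a cell viability assay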
Description: SANGER: Inhibition of human MPP-89 cell growth in a cell viability assay.

J-RT3-T3-5 = type: functional, cell-based; details: Homo sapiens;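 also: cell viability assay measuring growth inhibition of human J-RT3-T3-5 cells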
Description: SANGER: Inhibition of human J-RT3-T3-5 cell growth in a cell viability assay.

HPAF-II = type: functional, cell-based, Homo sapiens;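 also: growth inhibition of HPAF-II cells, read out with a cell viability assay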
Description: SANGER: Inhibition of human HPAF-II cell growth in a cell viability assay.

BT-20 = type: functional, cell-based, Homo sapiens;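 also: cell viability assay measuring suppression of growth in human BT-20 cells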
Description: SANGER: Inhibition of human BT-20 cell growth in a cell viability assay.

MFE-280 = type: functional, cell-based, Homo sapiens;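 also: growth inhibition of MFE-280 cells, determined with a cell viability readout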
Description: SANGER: Inhibition of human MFE-280 cell growth in a cell viability assay.

NCI-H1092 = type: functional, cell-based; details: Homo sapiens;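 also: cell growth inhibition measured with a cell viability assay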
Description: SANGER: Inhibition of human NCI-H1092 cell growth in a cell viability assay.

SW684 = type: functional, cell-based, Homo sapiens;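 also: growth inhibition of human SW684 cells, measured by a cell viability assay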
Description: SANGER: Inhibition of human SW684 cell growth in a cell viability assay.

NKM-1 = type: functional, cell-based; details: Homo sapiens;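 also: growth inhibition of NKM-1 cells, read out with a cell viability assay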
MSTO-211H = type: functional, cell-based, Homo sapiens
Description: SANGER: Inhibition of human MSTO-211H cell growth in a cell viability assay.

HSC-2 = type: functional, cell-based, Homo sapiens;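 also: growth inhibition of human HSC-2 cells, read out by a cell viability assay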
Description: SANGER: Inhibition of human HSC-2 cell growth in a cell viability assay.

LXF-289 cell line = type: functional, cell-based, Homo sapiens
Description: SANGER: Inhibition of human LXF-289 cell growth in a cell viability assay.

MHH-NB-11 = type: functional, cell-based, Homo sapiens;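 also: growth inhibition of human MHH-NB-11 cells, read out by a cell viability assay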
Description: SANGER: Inhibition of human MHH-NB-11 cell growth in a cell viability assay.

CAL-54 = type: functional, cell-based, Homo sapiens;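 also: growth inhibition of CAL-54 cells, read out by a viability measurement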
Description: SANGER: Inhibition of human CAL-54 cell growth in a cell viability assay.

HT = type: functional, cell-based; details: Homo sapiens
Description: SANGER: Inhibition of human HT cell growth in a cell viability assay.

YAPC = type: functional, cell-based, Homo sapiens;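 also: growth inhibition of YAPC cells, measured with a cell viability assay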
Description: SANGER: Inhibition of human YAPC cell growth in a cell viability assay.

SK-UT-1 = type: functional, cell-based, Homo sapiens;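 also: growth inhibition of SK-UT-1 cells, measured by a cell viability assay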
Description: SANGER: Inhibition of human SK-UT-1 cell growth in a cell viability assay.

CP50-MEL-B = type: functional, cell-based, Homo sapiens;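 also: growth inhibition of the human cell line, measured with a cell viability read-out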
Description: SANGER: Inhibition of human CP50-MEL-B cell growth in a cell viability assay.

SCH = type: functional, cell-based, Homo sapiens;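 also: growth inhibition of human SCH cells, read out in a cell viability assay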
Description: SANGER: Inhibition of human SCH cell growth in a cell viability assay.

SF-539 = type: functional, cell-based, Homo sapiens;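 also: Read-out is a cell viability assay, with IC50 reflecting inhibition of cell growth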
Description: SANGER: Inhibition of human SF539 cell growth in a cell viability assay.

RPMI-8866 = type: functional, cell-based; details: Homo sapiens
Description: SANGER: Inhibition of human RPMI-8866 cell growth in a cell viability assay.

769-P = type: functional, cell-based, Homo sapiens
Description: SANGER: Inhibition of human 769-P cell growth in a cell viability assay.

TGBC1TKB = type: functional, cell-based, Homo sapiens;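 also: growth inhibition of TGBC1TKB cells, read out by a cell viability assay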
Description: SANGER: Inhibition of human TGBC1TKB cell growth in a cell viability assay.

SCC-15 = type: functional, cell-based, Homo sapiens;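 also: growth inhibition of SCC-15 cells, read out with a cell viability assay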
Description: SANGER: Inhibition of human SCC-15 cell growth in a cell viability assay.

MOLT-16 = type: functional, cell-based; details: Homo sapiens;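 also: growth inhibition of human MOLT-16 cells, read out with a cell viability assay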
Description: SANGER: Inhibition of human MOLT-16 cell growth in a cell viability assay.

NCI-H1355 = type: functional, cell-based, Homo sapiens;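 also: growth inhibition of human NCI-H1355 cells, read out by a cell viability assay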
Description: SANGER: Inhibition of human NCI-H1355 cell growth in a cell viability assay.

TCC-SUP = type: functional, cell-based, Homo sapiens;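 also: growth inhibition of TCC-SUP cells, read out with a cell viability assay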
Description: SANGER: Inhibition of human TCCSUP cell growth in a cell viability assay.

NOMO-1 = type: functional, cell-based; details: Homo sapiens;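 also: growth inhibition of human NOMO-1 cells measured by a cell viability assay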
Description: SANGER: Inhibition of human NOMO-1 cell growth in a cell viability assay.

OVCAR-5 = type: functional, cell-based, Homo sapiens;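 also: growth inhibition of human OVCAR-5 cells, read out with a cell viability assay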
Description: SANGER: Inhibition of human OVCAR-5 cell growth in a cell viability assay.

SW1088 = type: functional, cell-based, Homo sapiens;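 also: growth inhibition of human SW1088 cells, read out by a cell viability assay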
Description: SANGER: Inhibition of human SW1088 cell growth in a cell viability assay.

NCI-H650 = type: functional, cell-based, Homo sapiens;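 also: growth inhibition of NCI-H650 cells, read out by a viability assay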
Description: SANGER: Inhibition of human NCI-H650 cell growth in a cell viability assay.

TE-6 = type: functional, cell-based, Homo sapiens;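 also: growth inhibition of TE-6 cells, read out with a cell viability assay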
Description: SANGER: Inhibition of human TE-6 cell growth in a cell viability assay.

ME-180 = type: functional, cell-based; details: Homo sapiens;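 also: cell viability assay measuring growth inhibition of ME-180 cells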
Description: SANGER: Inhibition of human ME-180 cell growth in a cell viability assay.

MS-1 = type: functional, cell-based; details: Homo sapiens;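 also: growth inhibition of MS-1 cells, read out by cell viability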
Description: SANGER: Inhibition of human MS-1 cell growth in a cell viability assay.

Calu-6 = type: functional, cell-based, Homo sapiens;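 also: growth of human Calu-6 cells, read out by a cell viability assay, IC50 marking inhibition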
Description: SANGER: Inhibition of human Calu-6 cell growth in a cell viability assay.

BXPC-3 = type: functional, cell-based, Homo sapiens;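 also: growth inhibition of human BxPC-3 cells, read out by a cell viability assay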
Description: SANGER: Inhibition of human BxPC-3 cell growth in a cell viability assay.

VMRC-RCZ = type: functional, cell-based; details: Homo sapiens;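 also: growth inhibition measured with a cell viability assay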
NUGC-3 = type: functional, cell-based, Homo sapiens;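 also: growth inhibition of human NUGC-3 cells, read out with a cell viability assay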
Description: SANGER: Inhibition of human NUGC-3 cell growth in a cell viability assay.

KYSE-180 = type: functional, cell-based, Homo sapiens;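 also: growth inhibition of KYSE-180 cells, read out with a cell viability assay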
Description: SANGER: Inhibition of human KYSE-180 cell growth in a cell viability assay.

HT-144 = type: functional, cell-based, Homo sapiens
Description: SANGER: Inhibition of human HT-144 cell growth in a cell viability assay.

NCI-H1838 = type: functional, cell-based, Homo sapiens;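 also: growth inhibition of NCI-H1838 cells, determined with a cell viability readout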
Description: SANGER: Inhibition of human NCI-H1838 cell growth in a cell viability assay.

TE-5 = type: functional, cell-based, Homo sapiens;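 also: inhibition of cell growth, read out by a cell viability assay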
Description: SANGER: Inhibition of human TE-5 cell growth in a cell viability assay.

JEG-3 = type: functional, cell-based, Homo sapiens;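 also: growth inhibition of human JEG-3 cells, read out with a cell viability assay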
Description: SANGER: Inhibition of human JEG-3 cell growth in a cell viability assay.

CAPAN-1 = type: functional, cell-based, Homo sapiens;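 also: growth suppression of CAPAN-1 cells, read out by a cell viability assay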
Description: SANGER: Inhibition of human CAPAN-1 cell growth in a cell viability assay.

U-251 = type: functional, cell-based, Homo sapiens;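 also: growth inhibition of human U-251 cells, read out through a cell viability assay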
Description: SANGER: Inhibition of human U251 cell growth in a cell viability assay.

BPH-1 = type: functional, cell-based, Homo sapiens;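 also: cell viability assay measuring growth inhibition of human BPH-1 cells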
Description: SANGER: Inhibition of human BPH-1 cell growth in a cell viability assay.

SAOS-2 = type: functional, cell-based, Homo sapiens;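 also: growth inhibition of human Saos-2 cells determined by a cell viability assay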
Description: SANGER: Inhibition of human Saos-2 cell growth in a cell viability assay.

FTC-133 = type: functional, cell-based, Homo sapiens
NCI-H2170 = type: functional, cell-based, Homo sapiens;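 also: cell viability assay measuring growth inhibition of human NCI-H2170 cancer cells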
LCLC-97TM1 = type: functional, cell-based, Homo sapiens;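 also: cell viability assay measuring growth inhibition of human LCLC-97TM1 cells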
Description: SANGER: Inhibition of human LCLC-97TM1 cell growth in a cell viability assay.

MZ2-MEL = type: functional, cell-based, Homo sapiens;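 also: growth inhibition of MZ2-MEL cells read out with a cell viability assay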
Description: SANGER: Inhibition of human MZ2-MEL cell growth in a cell viability assay.

A253 cell line = type: functional, cell-based, Homo sapiens;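 also: growth inhibition of A253 cells, read out with a cell viability assay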
Description: SANGER: Inhibition of human A253 cell growth in a cell viability assay.

CN(C)C/C=C/C(=O)Nc1cc2c(Nc3ccc(F)c(Cl)c3)ncnc2cc1O[C@H]1CCOC1 [AFATINIB]
IC50 (MPP-89; Homo sapiens, MPP-89): > 0.5 µM | IC50 (J-RT3-T3-5): > 0.5 µM | IC50 (HPAF-II; Homo sapiens, HPAF-II): > 0.5 µM | IC50 (BT-20; Homo sapiens, BT-20): > 0.5 µM | IC50 (MFE-280; Homo sapiens, MFE-280): > 0.5 µM | IC50 (NCI-H1092): > 0.5 µM | IC50 (SW684; Homo sapiens, SW684): > 0.5 µM | IC50 (NKM-1): > 0.5 µM | IC50 (MSTO-211H; Homo sapiens, MSTO-211H): > 0.5 µM | IC50 (HSC-2; Homo sapiens, HSC-2): 0.168 µM | IC50 (LXF-289 cell line; Homo sapiens, LXF-289): > 0.5 µM | IC50 (MHH-NB-11; Homo sapiens, MHH-NB-11): > 0.5 µM | IC50 (CAL-54; Homo sapiens, CAL-54): > 0.5 µM | IC50 (HT): > 0.5 µM | IC50 (YAPC; Homo sapiens, YAPC): > 0.5 µM | IC50 (SK-UT-1; Homo sapiens, SK-UT-1): > 0.5 µM | IC50 (CP50-MEL-B; Homo sapiens, CP50-MEL-B): > 0.5 µM | IC50 (SCH; Homo sapiens, SCH): > 0.5 µM | IC50 (SF-539; Homo sapiens, SF-539): > 0.5 µM | IC50 (RPMI-8866): > 0.5 µM | IC50 (769-P; Homo sapiens, 769-P): > 0.5 µM | IC50 (TGBC1TKB; Homo sapiens, TGBC1TKB): > 0.5 µM | IC50 (SCC-15; Homo sapiens, SCC-15): > 0.5 µM | IC50 (MOLT-16): > 0.5 µM | IC50 (NCI-H1355; Homo sapiens, NCI-H1355): > 0.5 µM | IC50 (TCC-SUP; Homo sapiens, TCC-SUP): > 0.5 µM | IC50 (NOMO-1): > 0.5 µM | IC50 (OVCAR-5; Homo sapiens, OVCAR-5): > 0.5 µM | IC50 (SW1088; Homo sapiens, SW1088): > 0.5 µM | IC50 (NCI-H650; Homo sapiens, NCI-H650): > 0.5 µM | IC50 (TE-6; Homo sapiens, TE-6): 0.402 µM | IC50 (ME-180): > 0.5 µM | IC50 (MS-1): > 0.5 µM | IC50 (Calu-6; Homo sapiens, Calu-6): > 0.5 µM | IC50 (BXPC-3; Homo sapiens, BXPC-3): > 0.5 µM | IC50 (VMRC-RCZ): > 0.5 µM | IC50 (NUGC-3; Homo sapiens, NUGC-3): 0.384 µM | IC50 (KYSE-180; Homo sapiens, KYSE-180): 0.391 µM | IC50 (HT-144; Homo sapiens, HT-144): > 0.5 µM | IC50 (NCI-H1838; Homo sapiens, NCI-H1838): > 0.5 µM | IC50 (TE-5; Homo sapiens, TE-5): > 0.5 µM | IC50 (JEG-3; Homo sapiens, JEG-3): > 0.5 µM | IC50 (CAPAN-1; Homo sapiens, CAPAN-1): > 0.5 µM | IC50 (U-251; Homo sapiens, U-251): > 0.5 µM | IC50 (BPH-1; Homo sapiens, BPH-1): 0.0599 µM | IC50 (SAOS-2; Homo sapiens, SAOS-2): > 0.5 µM | IC50 (FTC-133; Homo sapiens, FTC-133): > 0.5 µM | IC50 (NCI-H2170; Homo sapiens, NCI-H2170): 0.0373 µM | IC50 (LCLC-97TM1; Homo sapiens, LCLC-97TM1): > 0.5 µM | IC50 (MZ2-MEL; Homo sapiens, MZ2-MEL): > 0.5 µM

Cc1cc([C@@H](C)Nc2ccccc2C(=O)O)c2nc(N3CCOCC3)cc(=O)n2c1 [AZD-6482]
IC50 (MPP-89; mpp-89): > 5.12 µM | IC50 (J-RT3-T3-5): > 5.12 µM | IC50 (HPAF-II; hpaf-ii): > 5.12 µM | IC50 (BT-20; bt-20): 0.592 µM and 1.79 µM | IC50 (MFE-280; mfe-280): > 5.12 µM | IC50 (NCI-H1092): > 5.12 µM | IC50 (SW684; Homo sapiens, SW684): > 5.12 µM | IC50 (SW684; sw684): > 5.12 µM | IC50 (NKM-1): 1.29 µM | IC50 (MSTO-211H; msto-211h): > 5.12 µM | IC50 (HSC-2; Homo sapiens, HSC-2): 1.76 µM | IC50 (HSC-2; hsc-2): 1.14 µM | IC50 (LXF-289 cell line; lxf-289): 1.55 µM and 4.06 µM | IC50 (MHH-NB-11; mhh-nb-11): > 5.12 µM | IC50 (CAL-54; cal-54): > 5.12 µM and 1.25 µM | IC50 (HT): 4.02 µM | IC50 (YAPC; yapc): > 5.12 µM | IC50 (A253 cell line; Homo sapiens, A253): > 5.12 µM | IC50 (A253 cell line; a253): > 5.12 µM | IC50 (SK-UT-1; sk-ut-1): 2.45 µM and > 5.12 µM | IC50 (CP50-MEL-B; cp50-mel-b): > 5.12 µM | IC50 (SCH; sch): > 5.12 µM | IC50 (SF-539; sf-539): > 5.12 µM | IC50 (RPMI-8866): > 5.12 µM | IC50 (769-P; 769-p): > 5.12 µM | IC50 (TGBC1TKB; tgbc1tkb): > 5.12 µM | IC50 (SCC-15; scc-15): > 5.12 µM | IC50 (MOLT-16): 4.33 µM | IC50 (NCI-H1355; Homo sapiens, NCI-H1355): > 5.12 µM | IC50 (NCI-H1355; nci-h1355): > 5.12 µM | IC50 (TCC-SUP; tcc-sup): > 5.12 µM | IC50 (NOMO-1): 3.32 µM | IC50 (OVCAR-5; ovcar-5): > 5.12 µM | IC50 (SW1088; Homo sapiens, SW1088): 2.48 µM | IC50 (SW1088; sw1088): 2.01 µM | IC50 (NCI-H650; nci-h650): 1.3 µM and > 5.12 µM | IC50 (TE-6; te-6): > 5.12 µM | IC50 (ME-180): > 5.12 µM | IC50 (MS-1): > 5.12 µM | IC50 (Calu-6; calu-6): > 5.12 µM | IC50 (BXPC-3; bxpc-3): > 5.12 µM and 3.45 µM | IC50 (NUGC-3; nugc-3): > 5.12 µM | IC50 (KYSE-180; kyse-180): > 5.12 µM | IC50 (HT-144; Homo sapiens, HT-144): > 5.12 µM | IC50 (HT-144; ht-144): > 5.12 µM | IC50 (NCI-H1838; nci-h1838): > 5.12 µM | IC50 (TE-5; Homo sapiens, TE-5): > 5.12 µM | IC50 (TE-5; te-5): > 5.12 µM | IC50 (JEG-3; jeg-3): > 5.12 µM | IC50 (CAPAN-1; capan-1): > 5.12 µM | IC50 (U-251; u-251): > 5.12 µM | IC50 (BPH-1; Homo sapiens, BPH-1): 4.9 µM | IC50 (BPH-1; bph-1): 4.3 µM | IC50 (SAOS-2; Homo sapiens, SAOS-2): > 5.12 µM | IC50 (SAOS-2; saos-2): > 5.12 µM | IC50 (FTC-133; ftc-133): > 5.12 µM | IC50 (NCI-H2170; nci-h2170): > 5.12 µM | IC50 (LCLC-97TM1; Homo sapiens, LCLC-97TM1): > 5.12 µM | IC50 (LCLC-97TM1; lclc-97tm1): > 5.12 µM | IC50 (MZ2-MEL; mz2-mel): > 5.12 µM
